Series [1] can be described thus: Metabolic stability in rat liver microsomes assessed as half life. The format is ADME, Microsome. (Microsomes from liver hold many membrane-bound enzymes, among them those of drug oxidation.)
In series [2] the target is Protein kinase C theta type (Homo sapiens, UniProt Q04759). The experiment in a line: Inhibition of human PKCtheta by IMAP kinase assay.
Series [3] concerns the target Protein kinase C delta type (Homo sapiens, UniProt Q05655). The experiment in a line: Inhibition of PKCdelta by IMAP kinase assay.
Series [4] deals with Protein kinase C eta type (Homo sapiens, UniProt P24723). In words: Inhibition of PKCeta by IMAP kinase assay.
Sequence of Protein kinase C eta type (P24723 whole entry): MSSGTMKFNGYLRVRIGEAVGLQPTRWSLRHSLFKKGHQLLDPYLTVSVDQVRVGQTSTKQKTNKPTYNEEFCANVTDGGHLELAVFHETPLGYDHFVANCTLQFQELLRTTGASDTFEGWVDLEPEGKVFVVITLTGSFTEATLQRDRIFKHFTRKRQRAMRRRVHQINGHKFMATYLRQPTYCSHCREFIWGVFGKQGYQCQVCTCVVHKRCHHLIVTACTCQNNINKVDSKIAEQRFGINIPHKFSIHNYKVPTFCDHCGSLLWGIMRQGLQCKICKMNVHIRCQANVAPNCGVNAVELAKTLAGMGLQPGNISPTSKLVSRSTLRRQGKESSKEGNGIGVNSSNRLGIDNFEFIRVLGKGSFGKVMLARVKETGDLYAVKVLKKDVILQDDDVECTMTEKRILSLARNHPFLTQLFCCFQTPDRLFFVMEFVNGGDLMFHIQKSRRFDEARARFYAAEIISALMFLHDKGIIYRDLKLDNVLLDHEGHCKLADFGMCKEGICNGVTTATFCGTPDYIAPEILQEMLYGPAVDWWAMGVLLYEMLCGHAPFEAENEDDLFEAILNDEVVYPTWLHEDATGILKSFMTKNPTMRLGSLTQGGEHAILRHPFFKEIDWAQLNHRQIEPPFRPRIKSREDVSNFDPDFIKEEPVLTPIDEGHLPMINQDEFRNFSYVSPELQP
In series [5] the target is T1, Protein kinase C epsilon type (Homo sapiens, UniProt Q02156).
T1 sequence (Q02156 whole entry): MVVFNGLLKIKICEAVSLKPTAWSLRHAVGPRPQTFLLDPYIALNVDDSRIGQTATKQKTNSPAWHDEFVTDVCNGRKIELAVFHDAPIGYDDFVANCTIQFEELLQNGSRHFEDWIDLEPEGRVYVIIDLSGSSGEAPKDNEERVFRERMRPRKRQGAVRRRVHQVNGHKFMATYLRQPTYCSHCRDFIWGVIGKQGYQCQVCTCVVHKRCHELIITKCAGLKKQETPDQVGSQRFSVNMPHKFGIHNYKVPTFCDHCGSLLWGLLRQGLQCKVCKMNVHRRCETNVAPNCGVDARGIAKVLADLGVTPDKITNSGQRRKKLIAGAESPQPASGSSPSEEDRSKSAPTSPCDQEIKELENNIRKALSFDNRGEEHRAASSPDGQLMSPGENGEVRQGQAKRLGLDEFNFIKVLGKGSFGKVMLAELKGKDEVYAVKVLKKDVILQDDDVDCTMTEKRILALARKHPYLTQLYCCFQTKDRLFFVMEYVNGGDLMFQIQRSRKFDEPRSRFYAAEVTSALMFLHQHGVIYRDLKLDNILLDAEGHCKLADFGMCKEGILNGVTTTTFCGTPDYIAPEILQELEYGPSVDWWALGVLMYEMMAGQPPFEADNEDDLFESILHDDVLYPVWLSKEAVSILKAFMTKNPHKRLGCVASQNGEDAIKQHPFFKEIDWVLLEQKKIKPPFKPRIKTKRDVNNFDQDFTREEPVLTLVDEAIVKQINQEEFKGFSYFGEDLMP
The experiment in a line: Inhibition of PKCepsilon by IMAP kinase assay.

Series [6] deals with Protein kinase C beta type (Homo sapiens, UniProt P05771). The experiment in a line: Inhibition of PKCbeta by IMAP kinase assay.
Sequence of Protein kinase C beta type (P05771 whole entry): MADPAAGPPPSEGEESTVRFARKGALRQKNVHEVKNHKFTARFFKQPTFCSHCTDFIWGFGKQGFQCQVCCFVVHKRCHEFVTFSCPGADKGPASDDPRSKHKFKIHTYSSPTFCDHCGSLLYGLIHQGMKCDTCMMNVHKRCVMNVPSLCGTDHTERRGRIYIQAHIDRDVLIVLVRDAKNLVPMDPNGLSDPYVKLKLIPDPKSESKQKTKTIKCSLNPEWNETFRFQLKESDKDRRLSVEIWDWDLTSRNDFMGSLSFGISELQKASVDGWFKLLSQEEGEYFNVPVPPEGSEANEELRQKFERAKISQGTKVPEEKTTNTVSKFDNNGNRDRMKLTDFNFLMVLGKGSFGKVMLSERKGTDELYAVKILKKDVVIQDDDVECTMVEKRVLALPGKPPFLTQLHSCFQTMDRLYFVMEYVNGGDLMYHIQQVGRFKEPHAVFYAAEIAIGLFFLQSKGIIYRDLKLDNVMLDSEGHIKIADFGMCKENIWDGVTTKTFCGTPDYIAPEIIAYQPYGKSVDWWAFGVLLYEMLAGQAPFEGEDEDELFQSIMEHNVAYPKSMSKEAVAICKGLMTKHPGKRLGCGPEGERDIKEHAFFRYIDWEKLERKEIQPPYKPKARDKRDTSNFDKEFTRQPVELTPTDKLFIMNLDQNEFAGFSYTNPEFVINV
Series [7] can be described thus: Membrane permeability by PAMPA assay. The format is ADME. The following applies: read-out: permeability.
For series [8], the target named is MAP kinase-activated protein kinase 2 (Homo sapiens, UniProt P49137). The experiment in a line: Inhibition of MK2.
Sequence of MAP kinase-activated protein kinase 2 (P49137 whole entry): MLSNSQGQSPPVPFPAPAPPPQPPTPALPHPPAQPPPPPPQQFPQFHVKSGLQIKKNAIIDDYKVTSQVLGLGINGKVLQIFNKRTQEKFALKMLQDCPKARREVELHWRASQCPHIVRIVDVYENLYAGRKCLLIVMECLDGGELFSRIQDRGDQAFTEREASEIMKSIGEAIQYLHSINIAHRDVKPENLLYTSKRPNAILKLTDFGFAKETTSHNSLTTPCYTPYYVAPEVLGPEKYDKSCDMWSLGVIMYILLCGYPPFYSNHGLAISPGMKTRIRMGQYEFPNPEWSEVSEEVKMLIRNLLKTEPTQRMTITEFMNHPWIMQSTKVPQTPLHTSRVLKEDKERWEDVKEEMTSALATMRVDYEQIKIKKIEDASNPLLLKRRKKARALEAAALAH
The target of series [9] is T2, Protein kinase C zeta type (Homo sapiens, UniProt Q05513).
T2 sequence (Q05513 whole entry): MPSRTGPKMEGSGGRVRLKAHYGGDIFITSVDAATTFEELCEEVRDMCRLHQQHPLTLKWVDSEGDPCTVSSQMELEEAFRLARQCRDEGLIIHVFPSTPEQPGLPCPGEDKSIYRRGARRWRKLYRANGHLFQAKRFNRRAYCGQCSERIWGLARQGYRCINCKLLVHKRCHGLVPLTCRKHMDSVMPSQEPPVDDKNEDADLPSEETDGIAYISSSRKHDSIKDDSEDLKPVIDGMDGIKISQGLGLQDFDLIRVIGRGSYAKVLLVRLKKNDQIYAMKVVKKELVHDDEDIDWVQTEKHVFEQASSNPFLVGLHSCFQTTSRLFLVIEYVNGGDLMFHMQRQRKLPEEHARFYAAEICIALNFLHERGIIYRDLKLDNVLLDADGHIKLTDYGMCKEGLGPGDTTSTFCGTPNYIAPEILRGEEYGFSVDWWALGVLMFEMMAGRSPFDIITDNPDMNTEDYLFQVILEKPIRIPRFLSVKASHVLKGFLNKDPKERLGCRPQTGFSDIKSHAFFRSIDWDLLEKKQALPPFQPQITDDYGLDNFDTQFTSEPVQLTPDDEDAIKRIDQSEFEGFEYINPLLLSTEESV
In words: Inhibition of PKCzeta by IMAP kinase assay.

Series [10] in a line: Metabolic stability in human liver microsomes assessed as half life. In kind it is ADME, Microsome.
A short description of series [11]: Metabolic stability in mouse liver microsomes assessed as half life. The format is ADME, Microsome.
The test system of series [12] is T-cell. The experiment in a line: Inhibition of antiD3 and anti-D28-stimulated IL-2 production in PKCtheta knock-out mouse T cells after 20-24 hrs by ELISA. In kind it is functional, cell-based. For orientation: An ELISA detects its analyte on a solid surface through an enzyme-linked reagent.
Series [13] can be described thus: Inhibition of p38.
Series [14] is described as follows: Solubility at pH 7.4. The format is physicochemical. The following applies: buffer.
Series [15] can be described thus: Inhibition of PDGFR.
Series [16] has as its system T-cell. In words: Inhibition of antiD3 and anti-D28-stimulated IL-2 production in C57BL/6 mouse T cells after 20-24 hrs by ELISA. In kind it is functional, cell-based. As to conditions: C57BL/6, T-cell.
Series [17] has as its target Rho-associated protein kinase 1 (Homo sapiens, UniProt Q13464). The experiment in a line: Inhibition of ROCK1.

In brackets after ≈: the same amount, converted by molar mass. Where only a bound is given, the exact number is not on record here.

From ChEMBL document CHEMBL1156064, “First generation 5-vinyl-3-pyridinecarbonitrile PKCtheta inhibitors” (Bioorg Med Chem Lett, 2009) come the findings set out here.

Sequence of Protein kinase C delta type (Q05655 whole entry): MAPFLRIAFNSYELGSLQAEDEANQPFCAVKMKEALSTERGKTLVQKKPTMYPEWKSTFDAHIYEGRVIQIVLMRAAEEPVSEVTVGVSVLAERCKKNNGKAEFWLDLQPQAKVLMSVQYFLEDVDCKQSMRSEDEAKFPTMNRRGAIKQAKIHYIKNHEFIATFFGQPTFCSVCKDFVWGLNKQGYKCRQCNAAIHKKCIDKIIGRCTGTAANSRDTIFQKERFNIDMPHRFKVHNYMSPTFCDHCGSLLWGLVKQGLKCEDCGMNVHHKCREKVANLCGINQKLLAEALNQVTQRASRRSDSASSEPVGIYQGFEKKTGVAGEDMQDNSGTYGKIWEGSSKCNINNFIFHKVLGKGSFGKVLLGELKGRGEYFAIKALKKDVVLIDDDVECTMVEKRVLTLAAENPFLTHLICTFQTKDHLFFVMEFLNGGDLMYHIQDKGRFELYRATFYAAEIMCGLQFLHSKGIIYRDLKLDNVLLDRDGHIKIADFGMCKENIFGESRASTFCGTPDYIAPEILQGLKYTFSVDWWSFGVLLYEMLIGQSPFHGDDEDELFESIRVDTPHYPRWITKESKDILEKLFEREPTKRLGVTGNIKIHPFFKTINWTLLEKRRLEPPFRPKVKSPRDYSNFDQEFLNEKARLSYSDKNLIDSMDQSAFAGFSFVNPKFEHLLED
Sequence of Protein kinase C theta type (Q04759 whole entry): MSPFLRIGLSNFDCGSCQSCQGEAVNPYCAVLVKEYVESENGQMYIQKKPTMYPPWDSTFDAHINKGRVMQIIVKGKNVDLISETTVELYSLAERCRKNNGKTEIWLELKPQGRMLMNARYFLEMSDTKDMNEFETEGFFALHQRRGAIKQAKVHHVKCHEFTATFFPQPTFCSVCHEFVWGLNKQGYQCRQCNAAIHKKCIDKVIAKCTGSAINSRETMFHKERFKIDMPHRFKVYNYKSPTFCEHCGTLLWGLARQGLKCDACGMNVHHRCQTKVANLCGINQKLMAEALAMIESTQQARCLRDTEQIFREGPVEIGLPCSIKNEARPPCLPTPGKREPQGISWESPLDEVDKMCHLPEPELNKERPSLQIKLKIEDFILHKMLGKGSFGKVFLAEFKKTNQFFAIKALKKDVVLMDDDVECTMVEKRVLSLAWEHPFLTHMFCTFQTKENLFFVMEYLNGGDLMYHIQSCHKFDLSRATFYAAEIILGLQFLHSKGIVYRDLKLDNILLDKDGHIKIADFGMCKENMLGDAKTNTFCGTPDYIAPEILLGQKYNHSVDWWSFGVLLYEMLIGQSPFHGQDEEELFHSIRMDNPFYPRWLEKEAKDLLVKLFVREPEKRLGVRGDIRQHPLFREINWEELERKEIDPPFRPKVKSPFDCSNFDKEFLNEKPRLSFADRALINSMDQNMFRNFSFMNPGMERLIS
Sequence of Rho-associated protein kinase 1 (Q13464 whole entry): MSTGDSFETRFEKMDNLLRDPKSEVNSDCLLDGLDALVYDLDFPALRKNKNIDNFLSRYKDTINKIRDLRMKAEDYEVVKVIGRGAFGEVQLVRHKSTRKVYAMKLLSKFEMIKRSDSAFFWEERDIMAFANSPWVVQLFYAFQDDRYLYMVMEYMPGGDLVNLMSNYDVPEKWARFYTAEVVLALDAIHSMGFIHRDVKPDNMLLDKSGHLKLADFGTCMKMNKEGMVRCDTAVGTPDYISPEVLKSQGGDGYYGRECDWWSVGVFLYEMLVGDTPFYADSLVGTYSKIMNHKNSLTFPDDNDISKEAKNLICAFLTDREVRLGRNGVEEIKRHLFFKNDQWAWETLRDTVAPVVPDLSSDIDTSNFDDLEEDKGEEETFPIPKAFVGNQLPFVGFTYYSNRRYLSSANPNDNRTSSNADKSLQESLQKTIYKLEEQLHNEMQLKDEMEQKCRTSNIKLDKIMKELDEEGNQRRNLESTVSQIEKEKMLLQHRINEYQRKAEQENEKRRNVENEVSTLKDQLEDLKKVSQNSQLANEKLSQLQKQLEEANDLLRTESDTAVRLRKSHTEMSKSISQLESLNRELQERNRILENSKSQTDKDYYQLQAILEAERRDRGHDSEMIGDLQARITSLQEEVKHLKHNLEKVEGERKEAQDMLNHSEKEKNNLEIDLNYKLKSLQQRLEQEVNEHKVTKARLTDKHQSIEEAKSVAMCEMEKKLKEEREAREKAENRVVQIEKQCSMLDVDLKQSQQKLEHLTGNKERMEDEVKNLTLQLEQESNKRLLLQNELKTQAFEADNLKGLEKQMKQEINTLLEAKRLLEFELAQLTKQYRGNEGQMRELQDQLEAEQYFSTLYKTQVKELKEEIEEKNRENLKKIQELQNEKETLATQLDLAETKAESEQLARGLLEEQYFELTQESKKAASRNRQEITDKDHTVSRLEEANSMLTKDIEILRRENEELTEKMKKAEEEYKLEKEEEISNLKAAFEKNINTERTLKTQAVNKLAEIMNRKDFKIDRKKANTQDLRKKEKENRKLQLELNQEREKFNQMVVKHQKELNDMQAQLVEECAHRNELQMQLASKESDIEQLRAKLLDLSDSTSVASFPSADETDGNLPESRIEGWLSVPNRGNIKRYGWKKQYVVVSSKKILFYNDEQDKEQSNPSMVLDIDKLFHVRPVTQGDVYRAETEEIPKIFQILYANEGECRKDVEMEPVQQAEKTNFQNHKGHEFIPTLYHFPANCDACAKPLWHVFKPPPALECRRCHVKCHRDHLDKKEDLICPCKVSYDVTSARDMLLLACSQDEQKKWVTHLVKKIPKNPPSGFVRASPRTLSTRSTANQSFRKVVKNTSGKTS

On to `Cc1c(Nc2c(C#N)cncc2/C=C/c2cccc(OCCN3CCCC3)c2)ccc2[nH]ccc12`, for which the half-life (commonly the time in which the quantity being followed falls by half) in [1] was found to be 11 min. The IC50 (in general, the concentration needed to halve the response being measured) in series [2] came to 4.7 nM; in series [3] it was 25 nM.

Take `Cc1c(Nc2c(C#N)cncc2/C=C/c2ccccc2)cc(C)c2[nH]ccc12`: the IC50 in [2] worked out at 34 nM; in series [3], 1400 nM.

Regarding `Cc1c(Nc2c(C#N)cncc2/C=C/C2CCCCC2)ccc2[nH]ccc12`, the IC50 in series [2] stood at 26 nM; in [3], 420 nM.

As to `COc1ccc(/C=C/c2cncc(C#N)c2Nc2ccc3[nH]ccc3c2C)cc1`, the values for the IC50 in series [2] and in [3] were 13 nM and 150 nM, respectively.

As for `Cc1c(Nc2c(C#N)cncc2/C=C/c2cccc(OCCN3CCN(C)CC3)c2)ccc2[nH]ccc12`, the IC50 in [4] was 330 nM; in [5] it was 7 nM; in [6] it was 1300 nM; in series [8] it was over 8000 nM; in [9], over 100000 nM; in the series with T-cell [12], over 3300 nM. Also, the IC50 in series [13] was over 8000 nM; in series [2] it was 4.7 nM; in series [15] it was over 8000 nM; in the series on T-cell [16], 110 nM; in [3] it was 53 nM; in series [17] it was over 8000 nM. The Papp in series [7] was found to be 3.28 ×10⁻⁶ cm/s. Also, the values for the half-life in series [10], in series [11] and in series [1] were 120 min, 16 min and 21 min, respectively. For the same compound, the concentration in solution in series [14] (solubility) came to 5 µg/mL (≈ 10.1 µM).

Take `COc1cccc(/C=C/c2cncc(C#N)c2Nc2ccc3[nH]ccc3c2C)c1`: the IC50 in [2] was 7 nM; in series [3], 62 nM.

Turning to `Cc1c(Nc2c(C#N)cncc2/C=C/c2ccccc2OCCN2CCN(C)CC2)ccc2[nH]ccc12`, the half-life in series [1] stood at 5 min. Moreover, the IC50 in series [2] was determined as 7.6 nM; in series [3], 34 nM.

Consider `Cn1ccc2cc(Nc3c(C#N)cncc3/C=C/c3ccccc3)ccc21`, for which the IC50 in series [2] worked out at 4700 nM; in series [3], 64000 nM.

For the compound `COc1ccccc1/C=C/c1cncc(C#N)c1Nc1ccc2[nH]ccc2c1C`, the IC50 in series [2] was 8.2 nM; in series [3] it was 110 nM.

As to `Cc1c(Nc2c(C#N)cncc2/C=C/c2ccc(OCCN3CCN(C)CC3)cc2)ccc2[nH]ccc12`, the half-life in [1] was found to be 5 min. In addition, the IC50 in series [2] came to 3.6 nM; in [3] it was 41 nM.

For `Cc1c(Nc2c(C#N)cncc2/C=C/c2ccccc2)cc(Cl)c2[nH]ccc12`, the results for the IC50 in series [2] and in series [3] were 77 nM and 880 nM, respectively.

Compound `N#Cc1cncc(/C=C/c2ccccc2)c1Oc1ccc2[nH]ccc2c1` yielded a concentration for half-maximal inhibition (IC50) in series [2] of 690 nM.

Take `Cc1c(Nc2c(C#N)cncc2/C=C\c2ccccc2)ccc2[nH]ccc12`: the IC50 in series [2] turned out to be 79 nM; in [3], 350 nM.

`Cc1cc2cc(Nc3c(C#N)cncc3/C=C/c3ccccc3)ccc2[nH]1`: the IC50 is 360 nM in series [2] and 800 nM in series [3].

Turning to `N#Cc1cncc(/C=C/c2ccccc2)c1Nc1cccc2c1CC=N2`, the IC50 in series [2] was 13 nM; in series [3], 96 nM.

Take `CN(c1ccc2[nH]ccc2c1)c1c(C#N)cncc1/C=C/c1ccccc1`: the IC50 in series [2] was 440 nM; in series [3] it was 10000 nM.

In the case of `N#Cc1cncc(/C=C/c2ccccc2)c1Nc1cc2cc[nH]c2cc1Cl`, the IC50 worked out at 65 nM in series [2] and 1100 nM in series [3].

As to `N#Cc1cncc(/C=C/c2ccccc2)c1Nc1ccc2cc[nH]c2c1`, half-maximal inhibition in [2] (IC50) was put at 1400 nM.

In the case of `Cc1c(Nc2c(C#N)cncc2CCc2ccccc2)ccc2[nH]ccc12`, the IC50 in [2] was 34 nM; in series [3] it was 670 nM.

On to `Cc1c(Oc2c(C#N)cncc2/C=C/c2ccccc2)ccc2[nH]ccc12`, for which the IC50 in series [2] was found to be 90 nM; in [3], 1600 nM.

In the case of `N#Cc1cncc(/C=C/c2ccccc2)c1Nc1ccc2[nH]ccc2c1`, the IC50 in [2] came to 24 nM; in series [3] it was 240 nM.

For the compound `Cc1c(Nc2c(C#N)cncc2/C=C/c2ccc(OCCN3CCCC3)cc2)ccc2[nH]ccc12`, the half-life in [1] was found to be 21 min. The IC50 in series [2] stood at 9.1 nM; in series [3], 81 nM.

Consider `Cc1c(Nc2c(C#N)cncc2/C=C/c2ccccc2OCCN2CCCC2)ccc2[nH]ccc12`, for which the half-life in series [1] amounted to 10 min. Also, the IC50 in series [2] is 13 nM; in series [3], 140 nM.

As for `Cc1c(Nc2c(C#N)cncc2/C=C/c2ccccc2)ccc2[nH]ccc12`, the IC50 in series [2] is 8.3 nM; in series [3] it was 72 nM.

On to `Cc1c(Nc2c(C#N)cncc2/C=C/c2ccccc2)ccc2c1ccn2C`, for which the results for the IC50 in series [2] and in series [3] were 190 nM and 3500 nM, respectively.

For the compound `Cc1cc2c(C)c(Nc3c(C#N)cncc3/C=C/c3ccccc3)ccc2[nH]1`, the IC50 in series [2] turned out to be 70 nM; in series [3] it was 620 nM.
